Source: publication PMC12171682, “Saarvienin A—A Novel Glycopeptide with Potent Activity against Drug‐Resistant Bacteria” (Angewandte Chemie (International Ed. in English), 2025)
In brackets after ≈: the same amount, converted by molar mass. Read-outs that look alike come from different tables or passages of the source.

Columns and labels:
[1] = system: E. faecalis DSM 12956 (VRE, vanB positive); conditions: broth microdilution, cation-adjusted Mueller-Hinton Broth II, ~4 × 10⁵ CFU/mL, 37 °C, 24 h; mean of three independent biological replicates, each in technical triplicate
[2] = system: S. aureus Mu50 (MRSA/VISA); conditions: broth microdilution, cation-adjusted Mueller-Hinton Broth II, ~4 × 10⁵ CFU/mL, 37 °C, 24 h, mean of three independent biological replicates, each in technical triplicate
[3] = system: E. coli WO153 (AB1157, recJ asmB1, ΔtolC); conditions: broth microdilution, cation-adjusted Mueller-Hinton Broth II, ~4 × 10⁵ CFU/mL, 37 °C, 24 h; mean of three independent biological replicates, each in technical triplicate
[4] = system: M. tuberculosis H37Ra ATCC 25177
E. coli K12 ΔacrB = conditions: broth microdilution, cation-adjusted Mueller-Hinton Broth II, ~4 × 10⁵ CFU/mL, 37 °C, 24 h, mean of three independent biological replicates, each in technical triplicate
E. coli K12 ΔtolC = conditions: broth microdilution, cation-adjusted Mueller-Hinton Broth II, 37 °C, 24 h, mean of three independent biological replicates, each in technical triplicate
S. aureus HG001‐DRSA = conditions: daptomycin-resistant mutant of HG001; broth microdilution, cation-adjusted Mueller-Hinton Broth II, ~4 × 10⁵ CFU/mL, 37 °C, 24 h; mean of three independent biological replicates, each in technical triplicate
S. aureus N315 (MRSA) = conditions: broth microdilution, cation-adjusted Mueller-Hinton Broth II, ~4 × 10⁵ CFU/mL, 37 °C, 24 h; mean of three independent biological replicates, each in technical triplicate
[5] = system: E. faecium DSM 17050 (VRE, vanA positive); conditions: broth microdilution, cation-adjusted Mueller-Hinton Broth II, ~4 × 10⁵ CFU/mL, 37 °C, 24 h; mean of three independent biological replicates, each in technical triplicate
E. faecalis ATCC 29212 = conditions: broth microdilution, 37 °C, 24 h
[6] = system: S. aureus DSM 11822 (MDR); conditions: broth microdilution, cation-adjusted Mueller-Hinton Broth II, ~4 × 10⁵ CFU/mL, 37 °C, 24 h; mean of three independent biological replicates, each in technical triplicate
[7] = system: vancomycin‐resistant E. faecium clinical isolates with reduced susceptibility to daptomycin (n = 26); conditions: 24 h

CN[C@@]1(C)C[C@H](O[C@@H]2[C@H](O)C[C@H](O[C@H]3[C@H](C)O[C@@H](O[C@H]4[C@H](O[C@H]5[C@H](C)O[C@@H](Oc6ccc(C[C@@H](O)C(=O)N[C@H]7CNC(=O)NC[C@@H](C(=O)N[C@H](Cc8ccccc8)C(=O)O)NC(=O)[C@H]([C@H](C)c8c[nH]c9ccc(Cl)cc89)NC7=O)cc6)C[C@]5(C)N)O[C@@H](C)[C@H](O)[C@H]4O)C[C@]3(C)NC)O[C@H]2C)O[C@@H](C)[C@@H]1OC [Saarvienin A, saarvienin A]
MIC, E. faecalis DSM 12956 (VRE, vanB positive) [1]: 1 µg/mL (≈ 0.662 µM)
MIC, S. aureus Mu50 (MRSA/VISA) [2]: 1 µg/mL (≈ 0.662 µM)
MIC, S. aureus Mu50 (MRSA/VISA) ([2]; listed as 1): 0.5 µg/mL (≈ 0.331 µM)
MIC, E. coli WO153 (AB1157, recJ asmB1, ΔtolC) [3]: 2 µg/mL (≈ 1.32 µM)
MIC, M. tuberculosis H37Ra ATCC 25177 [4]: 32 µg/mL (≈ 21.2 µM)
MIC, E. coli K12 ΔacrB (E. coli K12 ΔacrB): >64 µg/mL
MIC, E. coli K12 ΔacrB (E. coli K12 ΔacrB; listed as 1): non‐susceptible
MIC, E. coli K12 ΔtolC (tolC‐deficient) + PMBN (E. coli K12 ΔtolC; co‐incubated with sub‐lethal concentrations of polymyxin B nonapeptide (PMBN)): 32 µg/mL
MIC, E. coli K12 ΔtolC (E. coli K12 ΔtolC; without PMBN, ~4 × 10⁵ CFU/mL): 64 µg/mL (≈ 42.4 µM)
MIC, S. aureus HG001‐DRSA (S. aureus HG001‐DRSA): 1 µg/mL (≈ 0.662 µM)
MIC, S. aureus N315 (MRSA) (S. aureus N315 (MRSA)): 0.5 µg/mL (≈ 0.331 µM)
MIC, E. faecium DSM 17050 (VRE, vanA positive) [5]: 1 µg/mL (≈ 0.662 µM)
MIC, E. faecalis ATCC29212 (E. faecalis ATCC 29212; cation-adjusted Mueller-Hinton Broth II, ~4 × 10⁵ CFU/mL, mean of three independent biological replicates, each in technical triplicate): 2 µg/mL (≈ 1.32 µM)
MIC, E. faecalis ATCC29212 (E. faecalis ATCC 29212; reference strain in Table S5, MHB II, daptomycin with 50 µg/mL Ca2+, mean of two independent experiments): 2 µg/mL (≈ 1.32 µM)
MIC, S. aureus DSM 11822 (MDR) [6]: 0.5 µg/mL (≈ 0.331 µM)
MIC50 [7]: 0.5 µg/mL (≈ 0.331 µM)
MIC90 [7]: 0.5 µg/mL (≈ 0.331 µM)
MIC Range [7]: 0.5 to 1 µg/mL
MIC, Enterococcus faecium isolate 1 [7]: 1 µg/mL (≈ 0.662 µM)
MIC, Enterococcus faecium isolate 2 [7]: 0.5 µg/mL (≈ 0.331 µM)
MIC, Enterococcus faecium isolate 3 [7]: 0.5 µg/mL (≈ 0.331 µM)
MIC, Enterococcus faecium isolate 4 [7]: 0.5 µg/mL (≈ 0.331 µM)
MIC, Enterococcus faecium isolate 5 [7]: 0.5 µg/mL (≈ 0.331 µM)
MIC, Enterococcus faecium isolate 6 [7]: 0.5 µg/mL (≈ 0.331 µM)
MIC, Enterococcus faecium isolate 7 [7]: 0.5 µg/mL (≈ 0.331 µM)
MIC, Enterococcus faecium isolate 8 [7]: 0.5 µg/mL (≈ 0.331 µM)
MIC, Enterococcus faecium isolate 9 [7]: 0.5 µg/mL (≈ 0.331 µM)
MIC, Enterococcus faecium isolate 10 [7]: 0.5 µg/mL (≈ 0.331 µM)
MIC, Enterococcus faecium isolate 11 [7]: 0.5 µg/mL (≈ 0.331 µM)
MIC, Enterococcus faecium isolate 12 [7]: 0.5 µg/mL (≈ 0.331 µM)
MIC, Enterococcus faecium isolate 13 [7]: 0.5 µg/mL (≈ 0.331 µM)
MIC, Enterococcus faecium isolate 14 [7]: 0.5 µg/mL (≈ 0.331 µM)
MIC, Enterococcus faecium isolate 15 [7]: 0.5 µg/mL (≈ 0.331 µM)
MIC, Enterococcus faecium isolate 16 [7]: 0.5 µg/mL (≈ 0.331 µM)
MIC, Enterococcus faecium isolate 17 [7]: 0.5 µg/mL (≈ 0.331 µM)
MIC, Enterococcus faecium isolate 18 [7]: 0.5 µg/mL (≈ 0.331 µM)
MIC, Enterococcus faecium isolate 19 [7]: 0.5 µg/mL (≈ 0.331 µM)
MIC, Enterococcus faecium isolate 20 [7]: 0.5 µg/mL (≈ 0.331 µM)
MIC, Enterococcus faecium isolate 21 [7]: 0.5 µg/mL (≈ 0.331 µM)
MIC, Enterococcus faecium isolate 22 [7]: 0.5 µg/mL (≈ 0.331 µM)
MIC, Enterococcus faecium isolate 23 [7]: 0.5 µg/mL (≈ 0.331 µM)
MIC, Enterococcus faecium isolate 24 [7]: 0.5 µg/mL (≈ 0.331 µM)
MIC, Enterococcus faecium isolate 25 [7]: 0.5 µg/mL (≈ 0.331 µM)
MIC, Enterococcus faecium isolate 26 [7]: 0.5 µg/mL (≈ 0.331 µM)
